The record followed here is PMC5400565, “Real-time near-infrared fluorescence imaging using cRGD-ZW800-1 for intraoperative visualization of multiple cancer types” (Oncotarget, 2017).

In one experiment the target is T1, Opioid δ (DOP) (Homo sapiens, UniProt P41143).
T1 construct: Eurofins Cerep SA (contract screening)
The experiment is described as follows: Off-target screening (Eurofins Cerep), δ (DOP). The experiment is classed as binding.

The target in the next experiment is T2, Adrenergic α2A (Homo sapiens, UniProt P08913).
T2 construct: Eurofins Cerep SA (contract screening)
The experiment is described as follows: Off-target screening (Eurofins Cerep), α2A. The experiment is classed as binding.

The target in another experiment is T3, Cannabinoid CB1 (Homo sapiens, UniProt P21554).
T3 construct: Eurofins Cerep SA (contract screening)
Briefly: Off-target screening (Eurofins Cerep), CB1. Type of experiment: binding.

Another experiment relates to U-87 MG cells. The experiment is described as follows: In vitro competition with unlabeled cRGD, U-87 MG. The experiment is classed as cell-based, human. The conditions noted are these: 500 nM cRGD-ZW800-1 + 500 nM unlabeled cRGD (1:1), 37°C, 2 h, vs cells without unlabeled cRGD, triplicate, p = 0.02. On the procedure:
For in vitro competition, U-87 MG (αvβ3 and αvβ5 positive, αvβ6 negative) and HT-29 (αvβ3 negative, αvβ5 and αvβ6 positive) cells were plated in a 96-well plate at a density of ∼40,000 and ∼60,000 cells per well, respectively. Subsequently, 500 nM of cRGD-ZW800-1 was simultaneously added to the cells and incubated at 37°C for 2 h. At the same time, half of the cells were also incubated with 500 nM unlabeled (“cold”) cRGD.
Both the cells in the binding and the competition experiment were then washed twice and imaged with the Odyssey NIR scanner (LI-COR Biosciences, Lincoln, Nebraska: focus offset 3 mm; 800-nm channel). Next, cells were permeabilized with a 40/60 mixture of acetone and methanol followed by a washing step and a 5 min incubation with ToPro3 (1/2000, Invitrogen), a far red fluorescent dye (642/661nm). The wells were then washed and again imaged with the Odyssey scanner (focus offset 3 mm; 700-nm channel) to quantify the number of cells in each well. The experiments were performed in triplicate.

In experiment [1] the target is T4, lymphocyte-specific protein tyrosine kinase (LCK) (Homo sapiens, UniProt P06239).
T4 construct: Eurofins Cerep SA (contract screen)
The experiment is described as follows: Off-target screening (Eurofins Cerep), Lck kinase. The experiment is classed as biochemical.

Another experiment has as its target T5, Endothelin ETA (Homo sapiens, UniProt P25101).
T5 construct: Eurofins Cerep SA (contract screening)
The experiment is described as follows: Off-target screening (Eurofins Cerep), ETA. Type of experiment: binding.

In experiment [2] the target is AR (steroid nuclear receptor) (Homo sapiens, UniProt P10275). The experiment is described as follows: Off-target screening (Eurofins Cerep), AR. Type of experiment: binding.
The test system of a further experiment is HT-29 cells. Briefly: Binding assay of cRGD-ZW800-1 on cells. The experiment is classed as cell-based, human.
For another experiment, the system named is OSC-19 oral tumors. Briefly: NIR fluorescence imaging, OSC-19 oral tumors. The experiment is classed as in vivo, mice. The conditions noted are these: orthotopic OSC-19 tongue model; 10 nmol; 4 h; Pearl; n = 2; mean ± SD. On the procedure:
To induce subcutaneous tumors, colorectal cancer cells (HT-29) were injected at 4 sites on the back (500,000 cells per spot). Subsequently, these colorectal tumor cells were transplanted on the colon of other mice, as described by Tseng et al.. Approximately 500,000 pancreatic tumor cells (BxPC-3) were injected into the pancreas, as previously described by Kim et al.. Approximately 40,000 oral tumor cells (OSC-19) were injected in the tongue, as previously described by van Driel et al.. Approximately 500,000 breast tumor cells (MCF-7) were injected in both sides of the mammary fat pad to induce breast cancer tumors.
All animals were imaged using a Pearl® imager (LI-COR, Lincoln, NE) and an original FLARE® prototype. Animals with HT-29 tumors were imaged at 4 and 24 h post injection; animals with BxPC-3 and OSC-19 tumors at 4 h only. Animals with MCF-7 tumors were imaged at 0.5, 1, 2, 4, 6, 8, 24 and 48 h post injection. […] TBRs were calculated by dividing the tumor signal by the background signal. […]
Mice bearing orthotopic OSC-19 tumors (n = 2) were administrated with 10 nmol cRGD-ZW800-1 and imaged at 4 h. […] In vivo TBRs were calculated by dividing the mean fluorescence signals of tumors by the mean of surrounding tissue. Ex vivo organ-to-tumor ratios were calculated by dividing the fluorescence intensity of the organ by that of the tumor.

Experiment [3] concerns the target T6, GR (steroid nuclear receptor) (Homo sapiens, UniProt P04150).
T6 construct: Eurofins Cerep SA (contract screen)
Briefly: Off-target screening (Eurofins Cerep), GR. The experiment is classed as binding.

The target of another experiment is T7, Vasopressin V1a (Homo sapiens, UniProt P37288).
T7 construct: Eurofins Cerep SA (contract screening)
Briefly: Off-target screening (Eurofins Cerep), V1a. Type of experiment: binding.

The next experiment deals with T8, Muscarinic M3 (Homo sapiens, UniProt P20309).
T8 construct: Eurofins Cerep SA (contract screening)
Briefly: Off-target screening (Eurofins Cerep), M3. Type of experiment: binding.

Experiment [4] concerns the target T9, 5-hydroxytryptamine (serotonin) receptor 2B (5-HT2B) (Homo sapiens, UniProt P41595).
T9 construct: Eurofins Cerep SA (contract screening)
The experiment is described as follows: Off-target screening (Eurofins Cerep), 5-HT2B. Type of experiment: binding. An excerpt: Off-target interactions are binding of tracers to other components on the cell surface than the actual target site. These non-specific interactions are often of low affinity and easily missed, but can have significant effects. We outsourced the screening for in vitro for off-target interactions of cRGD-ZW800-1 to Eurofins Cerep SA, Le bois l’Evêque, France. They assessed the percentage of inhibition of a reference compound in 44 selected targets, including G protein-coupled receptors (GPCRs), transporters, ion channels, nuclear receptors, kinases and other non-kinase enzymes. These targets were recommended by four major pharmaceutical companies. The complete list is included in Supplementary Table 1 of the Supplementary Data. Each assay was performed twice using 10 μM cRGD-ZW800-1 and a reference compound. Inhibition higher than 50% was considered to represent a significant effect of cRGD-ZW800-1. Results showing between 20% and 50% were considered weak to moderate effects, while lower than 20% was not considered significant and mostly attributable to variability of the signal around the control level.

Where [5] appears, read: 10 μM cRGD-ZW800-1, format H, Ag, performed twice, read-out: % Inhibition of Control Specific Binding.
Setting [6] is: 10 μM, mean of 2, read-out: % of Control Specific Binding Mean.

T4 sequence (P06239 whole entry): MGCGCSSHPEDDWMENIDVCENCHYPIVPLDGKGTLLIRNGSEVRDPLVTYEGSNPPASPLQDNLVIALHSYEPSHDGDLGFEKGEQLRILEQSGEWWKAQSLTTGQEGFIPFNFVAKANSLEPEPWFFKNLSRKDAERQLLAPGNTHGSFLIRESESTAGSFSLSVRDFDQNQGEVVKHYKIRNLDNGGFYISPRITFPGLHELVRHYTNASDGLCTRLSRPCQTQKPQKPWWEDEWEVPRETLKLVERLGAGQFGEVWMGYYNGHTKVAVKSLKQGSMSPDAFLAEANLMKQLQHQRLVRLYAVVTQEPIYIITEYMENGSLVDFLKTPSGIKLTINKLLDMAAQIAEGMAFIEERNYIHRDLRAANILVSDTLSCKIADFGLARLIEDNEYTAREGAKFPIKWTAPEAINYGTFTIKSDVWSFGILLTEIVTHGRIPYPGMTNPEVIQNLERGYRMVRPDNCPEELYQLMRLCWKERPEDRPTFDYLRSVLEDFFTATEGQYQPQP
Chain of AR (steroid nuclear receptor) (P10275 whole entry): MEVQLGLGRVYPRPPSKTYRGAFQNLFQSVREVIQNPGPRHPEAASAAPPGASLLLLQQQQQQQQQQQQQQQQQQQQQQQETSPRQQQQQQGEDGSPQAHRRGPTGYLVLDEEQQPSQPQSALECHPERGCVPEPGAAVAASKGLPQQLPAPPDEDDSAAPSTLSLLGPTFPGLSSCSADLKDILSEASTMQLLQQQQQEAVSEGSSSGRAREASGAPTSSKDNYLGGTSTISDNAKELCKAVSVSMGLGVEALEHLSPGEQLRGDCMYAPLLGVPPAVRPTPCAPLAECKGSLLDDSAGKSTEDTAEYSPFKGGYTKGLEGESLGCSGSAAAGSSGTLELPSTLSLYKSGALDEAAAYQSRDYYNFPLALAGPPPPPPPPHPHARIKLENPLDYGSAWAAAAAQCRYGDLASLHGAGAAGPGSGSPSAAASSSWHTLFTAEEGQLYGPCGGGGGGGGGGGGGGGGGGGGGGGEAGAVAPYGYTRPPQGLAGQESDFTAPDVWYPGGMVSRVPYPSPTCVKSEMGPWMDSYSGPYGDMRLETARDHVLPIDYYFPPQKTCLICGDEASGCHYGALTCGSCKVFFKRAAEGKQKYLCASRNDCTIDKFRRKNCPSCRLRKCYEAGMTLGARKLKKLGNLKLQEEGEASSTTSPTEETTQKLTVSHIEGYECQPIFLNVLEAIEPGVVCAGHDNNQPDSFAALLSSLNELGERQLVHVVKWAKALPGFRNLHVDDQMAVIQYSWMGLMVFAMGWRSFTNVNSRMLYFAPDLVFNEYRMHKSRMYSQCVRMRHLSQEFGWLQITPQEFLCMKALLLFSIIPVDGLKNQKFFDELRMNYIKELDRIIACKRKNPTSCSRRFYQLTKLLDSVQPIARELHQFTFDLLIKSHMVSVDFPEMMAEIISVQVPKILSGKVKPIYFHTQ
T6 sequence (P04150 whole entry): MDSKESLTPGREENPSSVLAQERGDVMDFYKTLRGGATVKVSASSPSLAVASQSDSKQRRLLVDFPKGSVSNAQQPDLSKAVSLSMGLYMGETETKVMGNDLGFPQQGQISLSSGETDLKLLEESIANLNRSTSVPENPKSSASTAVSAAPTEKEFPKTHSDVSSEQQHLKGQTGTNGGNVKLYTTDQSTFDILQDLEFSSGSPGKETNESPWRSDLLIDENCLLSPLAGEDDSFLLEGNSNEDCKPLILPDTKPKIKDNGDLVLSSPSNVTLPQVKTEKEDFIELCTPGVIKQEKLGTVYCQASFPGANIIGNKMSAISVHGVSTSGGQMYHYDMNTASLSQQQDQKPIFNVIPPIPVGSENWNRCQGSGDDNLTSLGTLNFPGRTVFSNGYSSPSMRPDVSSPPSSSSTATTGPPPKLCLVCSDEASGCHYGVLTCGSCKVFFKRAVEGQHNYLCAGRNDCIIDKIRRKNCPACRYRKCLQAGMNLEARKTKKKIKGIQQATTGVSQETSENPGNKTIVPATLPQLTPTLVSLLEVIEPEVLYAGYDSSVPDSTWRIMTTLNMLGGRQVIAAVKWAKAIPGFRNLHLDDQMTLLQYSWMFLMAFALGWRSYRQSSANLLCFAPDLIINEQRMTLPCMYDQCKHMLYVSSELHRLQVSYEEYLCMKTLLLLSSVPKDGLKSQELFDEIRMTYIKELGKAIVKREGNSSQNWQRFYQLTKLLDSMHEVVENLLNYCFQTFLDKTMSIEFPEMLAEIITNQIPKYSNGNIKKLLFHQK
T7 sequence (P37288 whole entry): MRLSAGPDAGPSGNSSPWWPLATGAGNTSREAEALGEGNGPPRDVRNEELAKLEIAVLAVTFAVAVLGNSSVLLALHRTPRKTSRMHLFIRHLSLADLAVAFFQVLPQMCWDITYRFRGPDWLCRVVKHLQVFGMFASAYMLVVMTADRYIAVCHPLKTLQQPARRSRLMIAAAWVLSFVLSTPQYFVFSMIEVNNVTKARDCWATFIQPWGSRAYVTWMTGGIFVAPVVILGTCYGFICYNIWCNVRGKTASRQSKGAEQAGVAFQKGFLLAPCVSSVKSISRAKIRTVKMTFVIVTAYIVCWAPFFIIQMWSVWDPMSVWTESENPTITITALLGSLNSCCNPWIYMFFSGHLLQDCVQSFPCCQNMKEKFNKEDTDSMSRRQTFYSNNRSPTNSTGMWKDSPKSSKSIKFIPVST
T9 sequence (P41595 whole entry): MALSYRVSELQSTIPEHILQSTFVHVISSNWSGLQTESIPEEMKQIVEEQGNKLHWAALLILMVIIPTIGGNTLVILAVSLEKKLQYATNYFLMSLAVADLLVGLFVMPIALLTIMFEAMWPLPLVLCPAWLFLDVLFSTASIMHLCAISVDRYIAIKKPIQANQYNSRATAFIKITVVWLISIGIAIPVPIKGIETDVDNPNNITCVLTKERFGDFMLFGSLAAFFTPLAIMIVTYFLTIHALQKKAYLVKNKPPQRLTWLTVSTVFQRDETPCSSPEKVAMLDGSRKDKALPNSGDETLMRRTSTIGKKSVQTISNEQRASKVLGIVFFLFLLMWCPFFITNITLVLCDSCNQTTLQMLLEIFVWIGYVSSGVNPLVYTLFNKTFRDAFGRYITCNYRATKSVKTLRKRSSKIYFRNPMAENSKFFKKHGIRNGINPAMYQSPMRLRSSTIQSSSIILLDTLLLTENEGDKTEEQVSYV
T2 sequence (P08913 whole entry): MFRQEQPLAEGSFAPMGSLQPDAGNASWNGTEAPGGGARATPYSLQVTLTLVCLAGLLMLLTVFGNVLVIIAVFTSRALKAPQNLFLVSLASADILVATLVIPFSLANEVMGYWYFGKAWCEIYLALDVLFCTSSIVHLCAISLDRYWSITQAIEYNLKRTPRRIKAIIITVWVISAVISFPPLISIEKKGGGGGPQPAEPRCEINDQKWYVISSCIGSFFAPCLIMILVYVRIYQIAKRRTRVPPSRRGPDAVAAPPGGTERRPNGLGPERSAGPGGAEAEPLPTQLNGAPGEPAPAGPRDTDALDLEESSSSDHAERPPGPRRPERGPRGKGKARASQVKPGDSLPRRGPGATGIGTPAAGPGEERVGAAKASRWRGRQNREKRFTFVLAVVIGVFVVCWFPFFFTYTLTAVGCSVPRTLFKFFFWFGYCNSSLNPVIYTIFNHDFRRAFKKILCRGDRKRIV
T5 sequence (P25101 21-427): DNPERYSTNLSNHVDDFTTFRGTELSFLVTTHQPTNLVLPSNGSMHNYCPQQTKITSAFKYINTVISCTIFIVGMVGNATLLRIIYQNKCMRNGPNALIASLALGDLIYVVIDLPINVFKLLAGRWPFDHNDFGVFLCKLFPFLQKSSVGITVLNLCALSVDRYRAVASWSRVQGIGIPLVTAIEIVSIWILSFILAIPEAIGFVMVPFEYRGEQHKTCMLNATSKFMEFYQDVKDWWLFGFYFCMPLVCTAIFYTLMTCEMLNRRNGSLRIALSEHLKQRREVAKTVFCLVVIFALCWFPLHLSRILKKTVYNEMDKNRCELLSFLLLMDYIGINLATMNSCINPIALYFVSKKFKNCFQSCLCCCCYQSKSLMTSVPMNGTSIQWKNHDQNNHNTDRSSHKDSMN
T8 sequence (P20309 whole entry): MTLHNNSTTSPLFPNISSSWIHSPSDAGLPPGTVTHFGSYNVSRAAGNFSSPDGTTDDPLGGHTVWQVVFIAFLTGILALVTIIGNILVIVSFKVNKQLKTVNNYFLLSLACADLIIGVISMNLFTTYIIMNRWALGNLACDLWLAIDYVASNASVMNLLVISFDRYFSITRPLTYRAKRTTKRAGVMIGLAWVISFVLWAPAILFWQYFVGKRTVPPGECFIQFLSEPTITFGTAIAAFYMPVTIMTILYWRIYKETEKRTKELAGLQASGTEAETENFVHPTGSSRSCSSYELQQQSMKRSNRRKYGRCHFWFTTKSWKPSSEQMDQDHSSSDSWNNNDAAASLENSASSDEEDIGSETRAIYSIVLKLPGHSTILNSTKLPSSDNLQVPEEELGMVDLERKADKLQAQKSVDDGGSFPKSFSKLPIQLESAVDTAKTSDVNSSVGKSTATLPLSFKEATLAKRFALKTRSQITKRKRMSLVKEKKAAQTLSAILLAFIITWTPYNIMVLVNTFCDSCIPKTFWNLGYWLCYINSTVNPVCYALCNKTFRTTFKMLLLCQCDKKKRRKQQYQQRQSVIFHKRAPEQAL
T1 sequence (P41143 whole entry): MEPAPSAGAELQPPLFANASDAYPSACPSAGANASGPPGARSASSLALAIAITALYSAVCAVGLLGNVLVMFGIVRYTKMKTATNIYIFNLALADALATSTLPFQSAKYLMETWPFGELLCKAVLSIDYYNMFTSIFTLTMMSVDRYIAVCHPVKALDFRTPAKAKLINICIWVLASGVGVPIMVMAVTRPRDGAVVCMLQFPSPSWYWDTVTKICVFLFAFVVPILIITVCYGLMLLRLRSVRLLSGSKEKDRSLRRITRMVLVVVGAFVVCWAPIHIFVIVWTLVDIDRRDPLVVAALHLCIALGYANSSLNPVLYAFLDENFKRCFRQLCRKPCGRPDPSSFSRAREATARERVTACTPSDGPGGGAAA

A word on the inhibition: it is the drop in the measured response relative to a control, in per cent. Regarding `CC1(C)C(/C=C/C2=C(Oc3ccc(CCC(=O)NCCCC[C@@H]4NC(=O)[C@@H](Cc5ccc(O)cc5)NC(=O)[C@H](CC(=O)O)NC(=O)CNC(=O)[C@H](CCCNC(=N)N)NC4=O)cc3)C(=C/C=C3/N(CCC[N+](C)(C)C)c4ccc(S(=O)(=O)O)cc4C3(C)C)/CCC2)=[N+](CCC[N+](C)(C)C)c2ccc(S(=O)(=O)O)cc21` [cRGD-ZW800-1], the inhibition at 10 µM is 14% at Opioid δ (DOP) (setting [5]); -4% on Adrenergic α2A (10 μM cRGD-ZW800-1, format H, An, performed twice, read-out: % Inhibition of Control Specific Binding); -6% on Cannabinoid CB1 (setting [5]); 28% in [1] (10 μM cRGD-ZW800-1, format H, performed twice, read-out: % Inhibition of Control Specific Binding); 1% at Endothelin ETA (setting [5]); 9% in experiment [2] (setting [5]). Moreover, the inhibition at 10 µM in [3] (setting [5]) was 10%; at Vasopressin V1a (setting [5]), 4%; on Muscarinic M3 (read-out: % Inhibition of Control Specific Binding), -7%; in [4] (setting [5]), 29%. Further, the remaining activity at 10 µM on Opioid δ (DOP) (setting [6]) was 85.5%; on Adrenergic α2A (setting [6]) it was 104%; at Cannabinoid CB1 (setting [6]), 106%; in experiment [1] (setting [6]), 72.3%; on Endothelin ETA (setting [6]), 98.6%; in [2] (setting [6]) it was 91.4%. Moreover, the remaining activity at 10 µM in experiment [3] (setting [6]) turned out to be 89.9%; on Vasopressin V1a (setting [6]) it was 96%; at Muscarinic M3 (read-out: % of Control Specific Binding Mean) it was 107%; in experiment [4] (setting [6]), 70.9%. In addition, the “reduction of fluorescence signal by unlabeled cRGD” value in the experiment on U-87 MG cells was 36%. Besides, the “fluorescence intensity with increasing concentrations” value in the experiment with HT-29 cells (0, 125, 250, 500, 1000 nM, 1 h, Odyssey NIR scanner 800-nm channel, triplicate) was “almost linear increase”. Moreover, in the experiment with HT-29 cells (incubated at 4°C, which prevents internalization, p < 0.0001), the “fluorescence signals at 4°C compared to 37°C” value was “Significantly lower signals”. The “mean TBR” value with OSC-19 oral tumors amounted to 5.4 ± 1.1.
